{"source": "paper PMC3997423", "about": "“Identification and HLA-Tetramer-Validation of Human CD4^+ and CD8^+ T Cell Responses against HCMV Proteins IE1 and IE2” (PLoS ONE, 2014)", "key": {"HLA-A*03:01": {"molecular_target": "HLA-A*03:01 (Homo sapiens, UniProt P04439)", "experiment": "biochemical", "procedure": "(§1) Peptide-HLA class I and II binding affinities were determined as previously described [44], [45].\n(§2) Complex formation was detected using a proximity-based Luminescent Oxygen Channeling Immunoassay assay and the peptide concentration leading to half-saturation (ED50) was determined as previously described [44], [45]. Under the limited receptor concentrations used here, the ED50 reflects the affinity of the interaction."}, "HLA-DRB1*03:01": {"molecular_target": "HLA-DRB1*03:01 (Homo sapiens, UniProt P01903+P01911, A100K/A102G/A103R/A169T/F55Y/I96L/K41T/L162R/M171V/P40S/Q125H/Q178H/Q39Y/R42S/S66N/T106N/T262R/W38E/Y61H)", "sequence (P01903 26-254 limits assumed, other chains not shown)": "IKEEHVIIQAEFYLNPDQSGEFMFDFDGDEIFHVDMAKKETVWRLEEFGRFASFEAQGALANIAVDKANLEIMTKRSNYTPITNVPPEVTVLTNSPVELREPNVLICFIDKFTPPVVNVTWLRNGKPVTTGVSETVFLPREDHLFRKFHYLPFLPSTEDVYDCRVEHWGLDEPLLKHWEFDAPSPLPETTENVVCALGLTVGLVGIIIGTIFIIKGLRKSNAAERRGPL", "experiment": "Peptide-HLA class II binding affinity", "conditions": "recombinant HLA class II α- and β-chains refolded with graded peptide, 48 h, 18°C; LOCI; ED50; read-out: Measured affinity", "procedure": "as §1, §2"}, "HLA-DRB3*01:01": {"molecular_target": "T1, HLA-DRB3*01:01 (Homo sapiens, UniProt P01903+P79483)", "T1 construct": "made in house", "experiment": "Peptide-HLA class II binding affinity", "conditions": "recombinant HLA class II α- and β-chains refolded with graded peptide, 48 h, 18°C; LOCI; ED50; read-out: Measured affinity", "procedure": "as §1, §2"}, "HLA-DRB1*13:01": {"molecular_target": "HLA-DRB1*13:01 (Homo sapiens, UniProt P01903+P01911, A100E/A169T/K41T/L162R/M171V/P40S/Q125H/Q178H/Q39Y/Q99D/R42S/S66N/T262R/W38E/Y61H)", "experiment": "Peptide-HLA class II binding affinity", "conditions": "read-out: measured affinity", "procedure": "as §1, §2"}, "HLA-DRB1*07:01": {"molecular_target": "HLA-DRB1*07:01 (Homo sapiens, UniProt P01903+P01911, A100R/A102G/A103Q/D57E/D86V/E43K/F76Y/K127E/L162R/M171V/P40G/Q125H/Q99D/R33Q/R42Y/R54Q/S133A/S66F/T210M/V115G/Y107V/Y59L/Y89S)", "experiment": "Peptide-HLA class II binding affinity", "conditions": "read-out: measured affinity", "procedure": "as §1, §2"}, "HLA-DRB1*15:01": {"molecular_target": "HLA-DRB1*15:01 (Homo sapiens, UniProt P01903+P01911)", "experiment": "Peptide-HLA class II binding affinity", "conditions": "read-out: measured affinity", "procedure": "as §1, §2"}, "HLA-B*08:01": {"molecular_target": "HLA-B*08:01 (Homo sapiens, UniProt P01889, A93T/A95T/D138N/E176V/E187T/K202T/Q94N/R180D/S35A/V36M/Y33D/Y91F)", "experiment": "biochemical"}, "HLA-DRB1*01:01": {"molecular_target": "HLA-DRB1*01:01 (Homo sapiens, UniProt P01903+P01911, A100R/D57E/F55L/F60I/F76Y/I96L/L162R/M171V/P40L/Q125E/R42F/V115G/Y59C)", "experiment": "Peptide-HLA class II binding affinity", "conditions": "read-out: measured affinity", "procedure": "as §1, §2"}, "HLA-A*01:01": {"molecular_target": "HLA-A*01:01 (Homo sapiens, UniProt P04439, A114D/A174V/A182V/D101N/D185E/E176A/E190D/L180R/Q94H/R68K/S129P/T187R/V100A/V91M/W191G)", "experiment": "Peptide-HLA class I binding affinity", "conditions": "read-out: Measured affinity", "procedure": "as §1, §2"}, "HLA-C*06:02": {"molecular_target": "HLA-C*06:02 (Homo sapiens, UniProt P10321, A176E/A330V/C350S/L171W/L180W/L218V/M285V/M309V/M331V/N104K/P208H/Q277E/Q291P/R121W/S101N/S123Y/S297R/T329A/T363A/V319A/V328M)", "experiment": "Peptide-HLA class I binding affinity", "conditions": "read-out: Measured affinity", "procedure": "as §1, §2"}, "HLA-B*13:02": {"molecular_target": "HLA-B*13:02 (Homo sapiens, UniProt P01889, A65T/A93T/A95T/D138N/D201E/D98Y/E176V/E204Q/E69M/E70A/G107R/K202T/L105A/L119W/N104T/N87E/Q94N/R106L/R155S/R169L/R180L/S101N/S121T/S35A/S48T/V127L/V36M/Y140L/Y91S)", "experiment": "Peptide-HLA class I binding affinity", "conditions": "read-out: Measured affinity", "procedure": "as §1, §2"}, "HLA-B*40:01": {"molecular_target": "HLA-B*40:01 (Homo sapiens, UniProt P01889, A65T/A93T/A95T/D138N/D98Y/E176V/E69K/N87E/Q56L/Q94N/R180L/S121R/S35A/S48T/T167S/V36M/W171L/Y33H/Y91S)", "experiment": "Peptide-HLA class I binding affinity", "conditions": "read-out: Measured affinity", "procedure": "as §1, §2"}, "CD8^+ T cells": {"system": "CD8^+ T cells", "experiment": "Ex vivo peptide-HLA class I tetramer staining", "assay_type": "cell-based, human", "conditions": "peptide-C*07:02 tetramer, responding donors", "procedure": "To tetramerize the resulting peptide-HLA class I monomers, Streptavidin-PE or Streptavidin-APC (Biolegend, San Diego, USA) was sequentially added over 60 min at a 1∶4 molar ratio of Streptavidin to peptide-HLA-I monomers. PBMCs were resuspended in 25 µl PE- and APC-conjugated tetramer and incubated for 20 min at RT followed by 30 min incubation with anti-CD3-Pacific blue, anti-CD4-APC/Cy7, and anti-CD8-PerCP antibody (Biolegend, San Diego, USA)."}, "HLA-B*55:01": {"molecular_target": "HLA-B*55:01 (Homo sapiens, UniProt P01889, A329T/C349S/D138N/D201E/E187T/E204Q/K202T/L119W/R155S/R180L/S121T/S35A/S48A/V127L/V306I/V36M/Y140L)", "experiment": "Peptide-HLA class I binding affinity", "conditions": "read-out: Measured affinity", "procedure": "as §1, §2"}, "HLA-A*68:01": {"molecular_target": "HLA-A*68:01 (Homo sapiens, UniProt P04439, A269V/D185E/E176V/E277Q/E87N/F33Y/G231S/I121M/I166T/I218V/L180W/L300P/L318F/N151K/P208A/P217A/Q86R/R169H/T345S)", "experiment": "Peptide-HLA class I binding affinity", "conditions": "read-out: Measured affinity", "procedure": "as §1, §2"}}, "note": "pKd: −log10 of the molar value. Where no end group is shown, it is not given here.", "data": [{"molecule": "KLGGALQAK [IE1_184–192]", "values": [{"measurement": "pKd", "setting": "HLA-A*03:01", "result": 6.67}]}, {"molecule": "CC[C@H](C)[C@H](NC(=O)[C@H](CCCCN)NC(=O)[C@@H](NC(=O)[C@H](CCCNC(=N)N)NC(=O)CNC(=O)[C@H](CCCNC(=N)N)NC(=O)[C@H](CCCNC(=N)N)NC(=O)[C@@H](N)[C@@H](C)O)C(C)C)C(=O)N[C@@H](CC(=O)O)C(=O)N[C@@H](CCC(=O)O)C(=O)N[C@H](C(=O)N[C@@H](CO)C(=O)N[C@@H](CCCNC(=N)N)C(=O)N[C@@H](CCSC)C(=O)N[C@@H](Cc1ccccc1)C(=O)O)C(C)C", "note": "[IE2_356–370]", "values": [{"measurement": "pKd", "setting": "HLA-DRB1*03:01", "result": 8.05}, {"measurement": "pKd", "setting": "HLA-DRB3*01:01", "result": 8.70}]}, {"molecule": "VRHRIKEHMLKKYTQ [IE1_96–110]", "values": [{"measurement": "pKd", "setting": "HLA-DRB1*13:01", "result": 8.70}]}, {"molecule": "CC[C@H](C)[C@H](NC(=O)CNC(=O)[C@@H](N)CCCCN)C(=O)N[C@@H](CCC(N)=O)C(=O)N[C@H](C(=O)N[C@H](C(=O)N[C@@H](Cc1ccc(O)cc1)C(=O)N[C@H](C(=O)N[C@@H](CCCNC(=N)N)C(=O)N[C@@H](CC(N)=O)C(=O)N[C@@H](Cc1c[nH]cn1)C(=O)N[C@@H](CCC(=O)O)C(=O)N[C@H](C(=O)N[C@@H](CCCCN)C(=O)N[C@@H](CO)C(=O)O)C(C)C)[C@@H](C)O)[C@@H](C)CC)[C@@H](C)CC", "note": "[IE2_408–422]", "values": [{"measurement": "pKd", "setting": "HLA-DRB1*07:01", "result": 7.28}, {"measurement": "pKd", "setting": "HLA-DRB1*15:01", "result": 7.35}]}, {"molecule": "QIKVRVDMV [IE1_88–96]", "values": [{"measurement": "pKd", "setting": "HLA-B*08:01", "result": 6.00}]}, {"molecule": "FLMEHTMPVTHPPEV [IE2_443–457]", "values": [{"measurement": "pKd", "setting": "HLA-DRB1*01:01", "result": 8.70}]}, {"molecule": "TSDACMMTMY [IE1_290–299]", "values": [{"measurement": "pKd", "setting": "HLA-A*01:01", "result": 8.05}]}, {"molecule": "VKQIKVRVDMVRHRI [IE1_86–100]", "values": [{"measurement": "pKd", "setting": "HLA-DRB1*03:01", "result": 8.40}, {"measurement": "pKd", "setting": "HLA-DRB3*01:01", "result": 6.96}]}, {"molecule": "QIKVRVDM [IE1_88–95]", "values": [{"measurement": "pKd", "setting": "HLA-B*08:01", "result": 6.24}, {"measurement": "pKd", "setting": "HLA-C*06:02", "result": 8.52}]}, {"molecule": "VRVDMVRHRIKEHML [IE1_91–105]", "values": [{"measurement": "pKd", "setting": "HLA-DRB1*03:01", "result": 8.00}, {"measurement": "pKd", "setting": "HLA-DRB1*13:01", "result": 8.70}, {"measurement": "pKd", "setting": "HLA-DRB3*01:01", "result": "< 5.30"}]}, {"molecule": "CSCC[C@H](NC(=O)[C@H](CC(C)C)NC(=O)[C@H](Cc1ccccc1)NC(=O)[C@@H]1CCCN1C(=O)[C@@H](NC(=O)[C@H](CO)NC(=O)[C@H](CC(C)C)NC(=O)[C@H](C)N)[C@@H](C)O)C(=O)N[C@@H](CCC(=O)O)C(=O)N[C@@H](Cc1c[nH]cn1)C(=O)N[C@H](C(=O)N[C@@H](CCSC)C(=O)N1CCC[C@H]1C(=O)N[C@H](C(=O)N[C@H](C(=O)O)[C@@H](C)O)C(C)C)[C@@H](C)O", "note": "[IE2_438–452]", "values": [{"measurement": "pKd", "setting": "HLA-DRB1*01:01", "result": 8.22}]}, {"molecule": "YILGADPLRV [IE1_354-363]", "values": [{"measurement": "pKd", "setting": "HLA-B*13:02", "result": 7.06}]}, {"molecule": "KEVNSQLSL [IE1_42–50/IE2_42–50]", "values": [{"measurement": "pKd", "setting": "HLA-B*40:01", "result": 7.60}]}, {"molecule": "EEAIVAYTL [IE1_381–389]", "values": [{"measurement": "pKd", "setting": "HLA-B*40:01", "result": 7.89}]}, {"molecule": "CRVLCCYVL [IE1_309–317]", "values": [{"measurement": "TMRI (%)", "setting": "CD8^+ T cells", "result": "0.8–8.0%"}]}, {"molecule": "RIKEHMLKK [IE1_99–107]", "values": [{"measurement": "pKd", "setting": "HLA-A*03:01", "result": 6.27}]}, {"molecule": "FPKTTNGCSQA [IE1_221–231]", "values": [{"measurement": "pKd", "setting": "HLA-B*55:01", "result": 6.86}]}, {"molecule": "TTFLQTMLR [IE1_33–41/IE2_33–41]", "values": [{"measurement": "pKd", "setting": "HLA-A*68:01", "result": 9.00}]}]}
